According to patent US10144914B2, “Modified substrates for protection of peptide-immobilized surfaces from gamma radiation degradation” (Corning Incorporated, priority 2010, dated 2018):

Columns and labels:
[1] = Solubility of individual coating components in water, ethanol and 1M HCl; format: physicochemical
Method: iii) Preparation of Antioxidant/Stabilizer Formulations: Prior to preparation of the antioxidant/stabilizer coating formulation, solubility of the individual components of each formulation was determined in water, ethanol and 1M HCl. Majority of the components were soluble in water, except for two in ethanol and one in 1M HCl. Both n-propyl gallate and Trolox were soluble in ethanol and only L-Tryptophan in 1M HCl. For each individual coating mixture formulation (i.e. Coatings 1-8), in a separate 25 mL glass vial containing the different components individually weighed out based on their respective wt % (see Table 1, below), Coating 1: 22 ml of solvent was used to make the coating solution (i.e. 20 mL of DI/water+2 ml of ethanol); Coating 2: 20 mL of DI/water added to vial; Coating 3: 18 mL of DI/water added+2 mL of ethanol to vial; Coating 4: 20 mL of DI/water+2 mL of ethanol; Coating 5: 16 mL of DI/water+4 mL of 1M HCl; Coating 6: 12 mL of DI/water+2 mL of ethanol+4 mL of 1M HCl; Coating 7: 20 mL of DI/water; Coating 8: 10 ml of DI/water+4 ml of ethanol+5 ml of 1M HCl.

[2] = test system: H7 cells; assay: Crystal violet staining of H7 cells on gamma sterilized VN peptide acrylate surface, amino acid blocking; format: cell-based, human; conditions: gamma irradiated; for H7 attachment and growth (crystal violet staining): used as blocking reagent after peptide conjugation
Source text: (§1) Acrylate coating: 2-Hydroxyethyl methacryalte, 2-carboxyethyl acrylate, tetra(ethylene glycol) dimethacrylate, Darocur 1173, Irgacure 819 were mixed with ratio of 80:20:3:3:0.1 and dissolved in ethanol at total monomer concentration of 5%. The obtained formulation was spin coated on oxygen plasma treated Zeonor film. After ethanol evaporated, the (meth)acrylate coating was cured using Xenon pulsed UV curing system in nitrogen purged box. Then, the coated films were in-mold-labeled into T-75 Zeonor flasks and used for conjugation directly.
(§2) Peptide conjugation: The acrylate surface was activated for an hour with 1:1 EDC: NHS in DMF. After aspiration of the activation solution, the surface was treated for an hour with 1 mM of the VN peptide (Ac-[…]) (SEQ ID NO:1) in phosphate buffer (pH7.4). After aspiration of the peptide solution, the surface was treated for an hour with 1M ethanolamine adjusted to pH 8.0-8.5 with hydrochloric acid or 0.1M of L-methionine methyl ester hydrochloride adjusted to pH 8 with sodium hydroxide based on experimental design. All reactions were performed at room temperature.
Sterilization: Flasks were packed with nitrogen and desiccant in aluminum pouch for Gamma sterilization. The irradiation dose was 11-18 kGy. Positive control VN-peptide acrylate sample was sanitized with 70% ethanol.
Stem cell culture: H7 cells were sub-cultured into T-75 fasks with desired peptide acrylate surfaces or Matrigel™ coated surfaces (positive control) at the density of 100,000 cell/cm^2 in X-VIVO 10+GF medium. Microscopic examination of cell and colony morphology was performed at day 3 or day 4. Cell number was assessed at day 4 or day 5 by harvesting with collagenase IV/EDTA treatment followed by cell counting with automated cell number/viability analyzer, Vi-Cell (Beckman Coulter). For methionine methyl ester treated surface, a step of rinsing with DPBS was applied to remove amino acid extractables before cell culture.

[3] = test system: H7 cells; assay: H7 cell count and morphology on gamma sterilized VN peptide acrylate surface after amino acid absorption; format: cell-based, human; conditions: 0.1M absorbed 1 hr, gamma 11-18 kGy
Source text: as §1, §2
Amino acid absorption: Peptide conjugated T-75 flask was filled with 10 mL of 0.1M of L-methionine methyl ester hydrochloride adjusted to pH 8 with sodium hydroxide. The flasks were lay flat so that the peptide surfaces were submerged under the amino acid solution and were incubated for 1 hr. This allows positive charged amino acid to be absorbed into negative charged peptide-acrylate coating. Then the amino acid solution was removed and the flasks were dried in vacuum for overnight before packing and sterilization. […]
Stem cell culture: H7 cells were sub-cultured into T-75 fasks with desired peptide acrylate surfaces or Matrigel™ coated surfaces (positive control) at the density of 100,000 cell/cm^2 in X-VIVO 10+GF medium. […] Cell number was assessed at day 4 or day 5 by harvesting with collagenase IV/EDTA treatment followed by cell counting with automated cell number/viability analyzer, Vi-Cell (Beckman Coulter). […]

[4] = Solubility of VN peptide in ethanol; format: physicochemical; conditions: 100% 200-proof ethanol, 0.5 mM or 1 mM, after agitation
Method: iii) Preparation of VN peptide coating solution: A 10 mL 0.5 mM or 1 mM VN coating solution was prepared by weighing out their corresponding masses and dissolving using a 100% 200-proof ethanol as the solvent.

In the case of N[C@@H](Cc1c[nH]c2ccccc12)C(=O)O [L-Tryptophan], the “solubility in 1M HCl” value ([1]; 1M HCl) is reported as “soluble”.

For Cc1c(C)c2c(c(C)c1O)CCC(C)(C(=O)O)O2 (stereo not shown) [Trolox], the solubility in ethanol [1] was “soluble”.

For NCCO [ethanolamine, reference compound], the “H7 attachment and growth (crystal violet staining)” value [2] was “there were not cells attached or grew”.

For COC(=O)[C@@H](N)CCSC.Cl [methionine methyl ester, L-methionine methyl ester hydrochloride], the “bioactivity of VN-peptide acrylate surface after Gamma irradiation” value [3] was “maintained”, the “stem cell morphology versus positive control” value [3] was “comparable” and the “cell number after 4 days of culture versus ETOH ctr and Matrigel” value ([3]; day 4) was “comparable”. For the same molecule, the “H7 attachment and growth (crystal violet staining)” value [2] was “still support good H7 attachment and growth” and the “cell morphology versus ethanol sanitized surfaces” value ([2]; used as blocking reagent) was “still not able to much those on ethanol sanitized surfaces”.

For CCCOC(=O)c1cc(O)c(O)c(O)c1 [n-propyl gallate], the solubility in ethanol [1] was “soluble”.

With “Ac-KGGPQVTRGDVFTMP-NH2 (C-terminus assumed) [VN peptide]” the “solubility in the ethanol solvent” value [4] was “partial to almost completely soluble”.
